Converted amounts (≈) assume the structure as drawn. Counter-ions that a name gives are not always drawn. Like-named read-outs stand apart in the source and are kept apart here.
Columns and labels:
Type in all cases: cell-based
S. aureus F-3095 = assay: Susceptibility test 1: MIC by micro-dilution method; conditions: Staphylococcus aureus
Experimental: (§1) Test substances were initially dissolved in dimethylsulfoxide. Antibacterial activities (MICs) of the same compounds were determined by the micro-dilution method as recommended by the Japanese Society of Chemotherapy.
(§2) The bacteria cultured on Mueller-Hinton agar (MHA) plates at 35° C. overnight were suspended in sterile physiological saline in a concentration that was equivalent to 0.5 McFarland. The bacterial inoculum was prepared by 10-fold dilution of this suspension. Approximately 0.005 mL of the bacterial inoculum was inoculated into Cation-adjusted Mueller-Hinton broth (CAMHB, 100 μL/well) containing the test substance and was incubated at 35° C. overnight. The lowest concentration of the test substance at which no bacterial growth was macroscopically observed was determined as the MIC.

S. aureus FDA209P = assay: as above; conditions: Staphylococcus aureus, read-out: MIC (μg/mL) S. aureus FDA209P
Experimental: as §1, §2

Cytotoxicity test (XTT) = conditions: African green monkey, vero cells, 3 days incubation, absorbance 450 nm, read-out: CC50 (concentration when cell proliferation was inhibited by 50%)
Experimental: Each test substance was dissolved in dimethyl sulfoxide and was prepared to each concentration with E-MEM containing 10% FBS, and then 0.1 mL of this solution was dispensed into each well of a 96-well microplate. A vero cell suspension containing 3×10^4 cells/mL was prepared with E-MEM containing 10% FBS, and 0.1 mL of the suspension was inoculated to each well. After incubation in 5% CO2 at 37° C. for 3 days, 50 μL of E-MEM containing 1 mg/mL of 2,3-bis-(2-methoxy-4-nitro-5-sulfophenyl)-5-[(phenylamino)carbonyl]-2H-tetrazolium, inner salt, monosodium salt (XTT) and 25 μM of phenazine methosulfate (PMS) was added to each well. After about 2 hours, the absorbance at 450 nm was measured with a microplate reader.
The absorbance ratio of each well supplied with the test substance and the control not containing the test substance was calculated, and the concentration of each compound when cell proliferation was inhibited by 50% (CC50; μg/mL) was calculated.

[1] = F3095, read-out: MIC (μg/mL) S. aureus F-3095
[2] = F3095, F-3095 (MDRSA), CAMHB, 35° C. overnight, lowest concentration with no macroscopic growth, read-out: MIC (μg/mL) S. aureus F-3095
[3] = CAMHB, 35° C. overnight, lowest concentration with no macroscopic growth

MIC (S. aureus F-3095; [2]) [µg/mL] | MIC (S. aureus FDA209P; [3]) [µg/mL] | SMILES | MIC (S. aureus F-3095; [1]) [µg/mL] | MIC (S. aureus FDA209P) [µg/mL] | CC50 at 3 days (Cytotoxicity test (XTT)) [µg/mL]
– | – | COc1cnc2ccc(=O)n(CCN3CCC(NCc4cncc(-c5cccs5)c4)CC3)c2c1 [Example 141, 7-methoxy-1-(2-(4-(((5-(2-thienyl)pyridin-3-yl)methyl)amino)piperidin-1-yl)ethyl)-1,5-naphthyridin-2(1H)-one hydrochloride] | 0.0313 | 0.0313 | –
0.0156 (≈ 0.0335 µM) | 0.0078 (≈ 0.0168 µM) | COc1cnc2ccc(=O)n(CCN3CCC(NCc4cc(-c5ccsc5)on4)CC3)c2c1 [Example 133, 7-methoxy-1-(2-(4-(((5-(3-thienyl)isoxazol-3-yl)methyl)amino)piperidin-1-yl)ethyl)-1,5-naphthyridin-2(1H)-one] | – | – | –
– | – | COc1cnc2ccc(=O)n(CCN3CCC(NCc4ccc5c(n4)NC(=O)CO5)CC3)c2c1 [Example 79, 1-(2-(4-((3-oxo-3,4-dihydro-2H-pyrido(3,2-b)(1,4)oxazin-6-yl)methylamino)piperidin-1-yl)ethyl)-7-methoxy-1,5-naphthyridin-2(1H)-one hydrochloride] | 0.0156 | 0.0078 | ≥ 51.2
0.0313 (≈ 0.0651 µM) | 0.0313 (≈ 0.0651 µM) | COc1cnc2ccc(=O)n(CCN3CCC(NCc4ccc5c(n4)NC(=O)CS5)CC3)c2c1 [Example 90, 6-(((1-(2-(7-methoxy-2-oxo-1,5-naphthyridin-1(2H)-yl)ethyl)piperidin-4-yl)amino)methyl)-2H-pyrido(3,2-b)(1,4)thiazin-3(4H)-one] | – | – | ≥ 51.2
– | – | CCc1ccc(CNC2CCN(CCn3c(=O)ccc4ncc(OC)cc43)CC2)nc1 [Example 123, 1-(2-(4-(((5-ethylpyridin-2-yl)methyl)amino)piperidin-1-yl)ethyl)-7-methoxy-1,5-naphthyridin-2(1H)-one hydrochloride] | 0.125 | 0.0313 | –
0.0625 (≈ 0.136 µM) | 0.0313 (≈ 0.0681 µM) | COc1cnc2ccc(=O)n(CCN3CCC(NCc4cncc(-c5ccco5)c4)CC3)c2c1 [Example 147, 1-(2-(4-(((5-(2-furyl)pyridin-3-yl)methyl)amino)piperidin-1-yl)ethyl)-7-methoxy-1,5-naphthyridin-2(1H)-one] | – | – | –
– | – | O=c1ccc2ccncc2n1CCN1CCC(NCc2cc(-c3cccs3)on2)CC1 [Example 35, 1-(2-(4-(((5-(2-thienyl)isoxazol-3-yl)methyl)amino)piperidin-1-yl)ethyl)-1,7-naphthyridin-2(1H)-one hydrochloride] | 0.0313 | 0.0313 | ≥ 51.2
– | – | COc1ccc2ccc(=O)n(CCN3CCC(NCc4ccc5c(c4)OCCO5)CC3)c2n1 [Example 44, 1-(2-(4-((2,3-dihydro-1,4-benzodioxin-6-ylmethyl)amino)piperidin-1-yl)ethyl)-7-methoxy-1,8-naphthyridin-2(1H)-one hydrochloride] | 0.0313 | 0.0313 | –
– | – | COc1ccc2ncc(=O)n(CCN3CCC(NCc4cc5c(cn4)OCCO5)CC3)c2n1 [Example 10, 4-(2-(4-((2,3-dihydro(1,4)dioxino(2,3-c)pyridin-7-ylmethyl)amino)piperidin-1-yl)ethyl)-6-methoxypyrido(2,3-b)pyrazin-3(4H)-one hydrochloride] | 0.0156 | 0.0156 | ≥ 51.2
0.0313 (≈ 0.0715 µM) | 0.0313 (≈ 0.0715 µM) | O=c1ccc2ncc(F)cc2n1CCN1CCC(NCc2cc(-c3ccco3)on2)CC1 [Example 143, 7-fluoro-1-(2-(4-(((5-(2-furyl)isoxazol-3-yl)methyl)amino)piperidin-1-yl)ethyl)-1,5-naphthyridin-2(1H)-one] | – | – | –
– | – | COc1cnc2ccc(=O)n(CCN3CCC(NCc4cc5c(cn4)OCCC5)CC3)c2c1 [Example 144, 1-(2-(4-((3,4-dihydro-2H-pyrano(2,3-c)pyridin-6-ylmethyl)amino)piperidin-1-yl)ethyl)-7-methoxy-1,5-naphthyridin-2(1H)-one hydrochloride] | 0.0313 | 0.0313 | –
– | – | COc1cnc2ccc(=O)n(CCN3CCC(NCc4cnc5c(c4)OCCO5)CC3)c2c1 [Example 80, 1-(2-(4-((2,3-dihydro(1,4)dioxino(2,3-b)pyridin-7-yl)methylamino)piperidin-1-yl)ethyl)-7-methoxy-1,5-naphthyridin-2(1H)-one hydrochloride] | 0.0156 | 0.0078 | ≥ 51.2
– | – | COc1cnc2ccc(=O)n(CCN3CCC(NCc4cc5c(cn4)OCCO5)[C@H](O)C3)c2c1 (stereo in doubt) [Example 95, 1-(2-((3R,4R)-4-((2,3-dihydro(1,4)dioxino(2,3-c)pyridin-7-ylmethyl)amino)-3-hydroxypiperidin-1-yl)ethyl)-7-methoxy-1,5-naphthyridin-2(1H)-one] | 0.0625 (≈ 0.134 µM) | 0.0313 (≈ 0.0669 µM) | ≥ 51.2
0.0078 (≈ 0.0162 µM) | 0.0039 (≈ 0.0081 µM) | COc1ccc2ncc(=O)n(CCN3CCC(NCc4ccc5c(n4)NC(=O)CS5)CC3)c2n1 [Example 55, 6-(((1-(2-(6-methoxy-3-oxopyrido(2,3-b)pyrazin-4(3H)-yl)ethyl)piperidin-4-yl)amino)methyl)-2H-pyrido(3,2-b)(1,4)thiazin-3(4H)-one] | – | – | ≥ 51.2
0.0313 (≈ 0.0645 µM) | 0.0313 (≈ 0.0645 µM) | O=C1CSc2cc(Cl)c(CNC3CCN(CCn4c(=O)ccc5ccncc54)CC3)nc2N1 [Example 30, 7-chloro-6-(((1-(2-(2-oxo-1,7-naphthyridin-1(2H)-yl)ethyl)piperidin-4-yl)amino)methyl)-2H-pyrido(3,2-b)(1,4)thiazin-3(4H)-one] | – | – | ≥ 51.2
0.0313 (≈ 0.0695 µM) | 0.0313 (≈ 0.0695 µM) | O=C1CSc2ccc(CNC3CCN(CCn4c(=O)ccc5ccncc54)CC3)nc2N1 [Example 33, 6-(((1-(2-(2-oxo-1,7-naphthyridin-1(2H)-yl)ethyl)piperidin-4-yl)amino)methyl)-2H-pyrido(3,2-b)(1,4)thiazin-3(4H)-one] | – | – | ≥ 51.2
0.0625 (≈ 0.147 µM) | 0.0625 (≈ 0.147 µM) | COc1cnc2ccc(=O)n(CCN3CCC(NCc4cnc(C)c(F)c4)CC3)c2n1 [Example 96, 5-(2-(4-(((5-fluoro-6-methylpyridin-3-yl)methyl)amino)piperidin-1-yl)ethyl)-3-methoxypyrido(2,3-b)pyrazin-6(5H)-one] | – | – | ≥ 51.2
– | – | Cc1cc(=O)n(CCN2CCC(NCc3cc4c(cn3)OCCO4)CC2)c2cc(F)cnc12 [Example 146, 1-(2-(4-((2,3-dihydro(1,4)dioxino(2,3-c)pyridin-7-ylmethyl)amino)piperidin-1-yl)ethyl)-7-fluoro-4-methyl-1,5-naphthyridin-2(1H)-one hydrochloride] | 0.0625 | 0.0625 | –
– | – | Cc1ccc(CNC2CCN(CCn3c(=O)ccc4ccncc43)CC2)cc1F [Example 8, 1-(2-(4-((3-fluoro-4-methylbenzyl)amino)piperidin-1-yl)ethyl)-1,7-naphthyridin-2(1H)-one hydrochloride] | 0.0313 | 0.0313 | ≥ 51.2
– | – | COc1cnc2ccc(=O)n(CCN3CCC(NCc4cc5c(cn4)OCCCO5)CC3)c2c1 [Example 118, 1-(2-(4-((3,4-dihydro-2H-(1,4)dioxepino(2,3-c)pyridin-8-ylmethyl)amino)piperidin-1-yl)ethyl)-7-methoxy-1,5-naphthyridin-2(1H)-one hydrochloride] | 0.0625 | 0.0625 | –
– | – | O=c1ccc2ncc(F)cc2n1CCN1CCC(NCc2cc3c(cn2)CCCO3)CC1 [Example 162, 1-(2-(4-((3,4-dihydro-2H-pyrano(3,2-c)pyridin-7-ylmethyl)amino)piperidin-1-yl)ethyl)-7-fluoro-1,5-naphthyridin-2(1H)-one hydrochloride] | 0.0625 | 0.0313 | –
– | – | CCc1ncc(CNC2CCN(CCn3c(=O)ccc4ncc(OC)cc43)CC2)cc1F [Example 137, 1-(2-(4-(((6-ethyl-5-fluoropyridin-3-yl)methyl)amino)piperidin-1-yl)ethyl)-7-methoxy-1,5-naphthyridin-2(1H)-one hydrochloride] | 0.0625 | 0.0313 | –
– | – | COc1cnc2ccc(=O)n(CCN3CCC(NCc4ccc(C)c(F)c4)CC3)c2c1 [Example 17, 1-(2-(4-((3-fluoro-4-methylbenzyl)amino)piperidin-1-yl)ethyl)-7-methoxy-1,5-naphthyridin-2(1H)-one hydrochloride] | 0.0313 | 0.0039 | –
– | – | COc1ccc2ccc(=O)n(CCN3CCC(NCc4cc5c(cn4)OCCO5)CC3)c2n1 [Example 45, 1-(2-(4-((2,3-dihydro(1,4)dioxino(2,3-c)pyridin-7-ylmethyl)amino)piperidin-1-yl)ethyl)-7-methoxy-1,8-naphthyridin-2(1H)-one hydrochloride] | 0.0625 | 0.0313 | –
